Article PMC10463303 (Veterinary Research, 2023)
Converted amounts (≈) assume the structure as drawn. Peptide text beside a SMILES is read from it.

Tests used:
Format in all cases: cell-based, Streptococcus suis serotype 2
Conditions in all cases: 18 h
[1] = tested on: SS2 strains including SC19 and P1/7
Protocol: (§1) Tryptic soy broth (TSB; Beijing Land Bridge Technology Co., ltd, China) with 10% fetal bovine serum (FBS; Zhejiang Tianhang Biotechnology Co., ltd, China) were used as bacterial growth media for antimicrobial activity assays and tryptic soy agar (TSA; Beijing Land Bridge Technology Co., ltd, China) plates containing 10% FBS were used for the colony counting assay. Bacteria were cultured at 37 °C for 18 h in TSB or TSA agar plates.
(§2) Antimicrobial activity of cathelicidins was performed using a broth microdilution assay. Briefly, bacteria were maintained in TSB medium with 10% FBS at 37 °C and grown to mid-logarithmic growth phase before being tested. Then, 50 μL of peptides (0 to 80 μM) in triplicate were mixed with an equal volume of bacterial suspension (2 × 10^6 CFU/mL) in 96-well plates and incubated for 18 h at 37 ℃. The minimum inhibitory concentration (MIC) was defined as the lowest concentration of ones at which there was no visible bacteria growth. The minimum bactericidal concentration (MBC) was determined by colony counting. Fifty microliter mixed medium were removed from wells in which visible bacteria growth was not observed and then were plated out on TSA plates. After overnight culture at 37 °C, survival bacteria were counted.

SS2 strain SC19 = tested on: SS2 strain SC19
Protocol: as §1, §2

SS2 strain P1/7 = test: Antimicrobial activity assay (broth microdilution MIC, MBC by colony counting)
Protocol: as §1, §2

[2] = broth microdilution, TSB + 10% FBS, peptides 0 to 80 μM in triplicate, bacterial suspension 2 × 10^6 CFU/mL, 37 °C, no visible growth

| SMILES | MBC (anti-SS2 activity) [1] [µM] | MIC (anti-SS2 activity) [1] [µM] | MBC toward SC19 (SS2 strain SC19) [µM] | MBC toward P1/7 (SS2 strain P1/7) [µM] | MIC toward SC19 (SS2 strain SC19; [2]) [µM] | MIC toward P1/7 (SS2 strain P1/7; [2]) [µM] |
| --- | --- | --- | --- | --- | --- | --- |
| CC[C@H](C)[C@H](NC(=O)[C@H](CCCNC(=N)N)NC(=O)[C@@H]1CCCN1C(=O)[C@@H]1CCCN1C(=O)[C@H](CC(C)C)NC(=O)[C@H](CCCNC(=N)N)NC(=O)[C@@H]1CCCN1C(=O)[C@@H]1CCCN1C(=O)[C@H](Cc1ccccc1)NC(=O)[C@H](Cc1ccccc1)NC(=O)[C@@H]1CCCN1C(=O)[C@@H]1CCCN1C(=O)[C@@H]1CCCN1C(=O)[C@H](CCCNC(=N)N)NC(=O)[C@@H]1CCCN1C(=O)[C@H](CCCNC(=N)N)NC(=O)[C@@H]1CCCN1C(=O)[C@H](CC(C)C)NC(=O)[C@H](Cc1ccc(O)cc1)NC(=O)[C@@H]1CCCN1C(=O)[C@@H]1CCCN1C(=O)[C@H](CCCNC(=N)N)NC(=O)[C@@H]1CCCN1C(=O)[C@H](CCCNC(=N)N)NC(=O)[C@H](CCCNC(=N)N)NC(=O)[C@@H](N)CCCNC(=N)N)C(=O)N1CCC[C@H]1C(=O)N1CCC[C@H]1C(=O)NCC(=O)N[C@@H](Cc1ccccc1)C(=O)N1CCC[C@H]1C(=O)N1CCC[C@H]1C(=O)N[C@@H](CCCNC(=N)N)C(=O)N[C@@H](Cc1ccccc1)C(=O)N1CCC[C@H]1C(=O)N1CCC[C@H]1C(=O)N[C@@H](CCCNC(=N)N)C(=O)N[C@@H](Cc1ccccc1)C(=O)N1CCC[C@H]1C(=O)O [PR-39] (H-RRRPRPPYLPRPRPPPFFPPRLPPRIPPGFPPRFPPRFP-OH) | > 40 | > 40 | > 40 | > 40 | – | – |
| CC[C@H](C)[C@H](NC(=O)[C@H](CCCCN)NC(=O)[C@H](CCCNC(=N)N)NC(=O)[C@H](CC(C)C)NC(=O)[C@H](Cc1ccccc1)NC(=O)[C@H](CCCNC(=N)N)NC(=O)CNC(=O)[C@H](Cc1ccccc1)NC(=O)[C@@H](N)CCCNC(=N)N)C(=O)N[C@@H](CCCNC(=N)N)C(=O)N[C@@H](CCCNC(=N)N)C(=O)N[C@@H](Cc1ccccc1)C(=O)N[C@@H](CCCNC(=N)N)C(=O)N1CCC[C@H]1C(=O)N[C@@H](CCCCN)C(=O)N[C@H](C(=O)N[C@H](C(=O)N[C@H](C(=O)N[C@H](C(=O)N[C@H](C(=O)N[C@@H](CCC(N)=O)C(=O)NCC(=O)N[C@@H](CO)C(=O)N[C@@H](C)C(=O)N[C@@H](CCCNC(=N)N)C(=O)N[C@@H](Cc1ccccc1)C(=O)O)[C@@H](C)CC)[C@@H](C)O)[C@@H](C)CC)[C@@H](C)O)C(C)C [CATH-2] (H-RFGRFLRKIRRFRPKVTITIQGSARF-OH) | 10 to 20 | 10 to 20 | 20 (≈ 64.2 µg/mL) | 10 (≈ 32.1 µg/mL) | – | – |
| CC[C@H](C)[C@H](NC(=O)[C@H](CCCCN)NC(=O)[C@H](CCCCN)NC(=O)[C@H](CC(C)C)NC(=O)[C@H](CCCNC(=N)N)NC(=O)[C@H](CCCCN)NC(=O)[C@H](CCCNC(=N)N)NC(=O)[C@@H](NC(=O)[C@H](CCCCN)NC(=O)[C@H](CCCCN)NC(=O)[C@H](CCCNC(=N)N)NC(=O)[C@H](CC(C)C)NC(=O)[C@H](CCCNC(=N)N)NC(=O)[C@H](CCCNC(=N)N)NC(=O)[C@H](Cc1ccccc1)NC(=O)[C@H](CCCNC(=N)N)NC(=O)CN)[C@@H](C)O)C(=O)NCC(=O)N[C@@H](CCCCN)C(=O)N[C@H](C(=O)N[C@@H](CC(C)C)C(=O)N[C@@H](CCCCN)C(=O)N[C@@H](Cc1c[nH]c2ccccc12)C(=O)N[C@H](C(=O)N1CCC[C@H]1C(=O)N1CCC[C@H]1C(=O)N[C@H](C(=O)N[C@H](C(=O)NCC(=O)N[C@@H](CO)C(=O)N[C@H](C(=O)N1CCC[C@H]1C(=O)N[C@@H](CC(C)C)C(=O)NCC(=O)N[C@@H](CS)C(=O)NCC(=O)O)[C@@H](C)CC)C(C)C)[C@@H](C)CC)[C@@H](C)CC)C(C)C [PMAP-36] (H-GRFRRLRKKTRKRLKKIGKVLKWIPPIVGSIPLGCG-OH) | > 40 | > 40 | 40 (≈ 166 µg/mL) | > 40 | – | – |
| CC[C@H](C)[C@H](NC(=O)CNC(=O)[C@H](CC(N)=O)NC(=O)[C@H](CC(C)C)NC(=O)[C@H](Cc1c[nH]c2ccccc12)NC(=O)[C@H](CCC(=O)O)NC(=O)[C@H](Cc1c[nH]c2ccccc12)NC(=O)[C@@H](NC(=O)[C@H](CCCNC(=N)N)NC(=O)[C@@H](NC(=O)[C@H](Cc1c[nH]c2ccccc12)NC(=O)[C@H](Cc1c[nH]c2ccccc12)NC(=O)[C@H](CC(N)=O)NC(=O)[C@H](CCCNC(=N)N)NC(=O)[C@@H](NC(=O)[C@@H]1CCCN1)[C@@H](C)CC)[C@@H](C)CC)[C@@H](C)CC)C(=O)N[C@@H](CCCNC(=N)N)C(=O)N[C@@H](CCCCN)C(=O)N[C@@H](CCCNC(=N)N)C(=O)N[C@@H](CC(C)C)C(=O)N[C@@H](CCCNC(=N)N)C(=O)N[C@@H](CCC(N)=O)C(=O)N[C@@H](CCCNC(=N)N)C(=O)N[C@@H](CO)C(=O)N1CCC[C@H]1C(=O)N[C@@H](Cc1ccccc1)C(=O)N[C@@H](Cc1ccc(O)cc1)C(=O)N[C@H](C(=O)N[C@@H](CCCNC(=N)N)C(=O)NCC(=O)N[C@@H](Cc1c[nH]cn1)C(=O)N[C@@H](CC(C)C)C(=O)N[C@@H](CC(N)=O)C(=O)N[C@H](C(=O)N[C@H](C(=O)N[C@@H](CO)C(=O)N[C@H](C(=O)N1CCC[C@H]1C(=O)N[C@@H](CCC(N)=O)C(=O)N1CCC[C@H]1C(=O)O)[C@@H](C)O)[C@@H](C)O)C(C)C)C(C)C [CATH-B1] (H-PIRNWWIRIWEWLNGIRKRLRQRSPFYVRGHLNVTSTPQP-OH) | > 40 | > 40 | > 40 | > 40 | – | – |
| CC[C@H](C)[C@H](NC(=O)CNC(=O)[C@H](C)NC(=O)[C@H](C)NC(=O)[C@@H](NC(=O)[C@@H](NC(=O)[C@H](CC(N)=O)NC(=O)[C@@H](NC(=O)[C@H](C)NC(=O)[C@@H](NC(=O)[C@@H]1CCCN1C(=O)[C@@H](NC(=O)[C@H](CC(C)C)NC(=O)[C@@H]1CCCN1C(=O)[C@H](Cc1c[nH]c2ccccc12)NC(=O)[C@H](Cc1ccccc1)NC(=O)[C@H](CCCNC(=N)N)NC(=O)[C@H](CCCCN)NC(=O)[C@@H](NC(=O)[C@@H](N)CCCNC(=N)N)C(C)C)C(C)C)C(C)C)[C@@H](C)CC)[C@@H](C)O)C(C)C)C(=O)N[C@@H](CC(N)=O)C(=O)N[C@@H](CC(C)C)C(=O)N[C@@H](Cc1ccc(O)cc1)C(=O)N[C@@H](CCCCN)C(=O)N[C@@H](C)C(=O)N[C@H](C(=O)N[C@@H](CCCNC(=N)N)C(=O)N[C@@H](CCCNC(=N)N)C(=O)N[C@@H](CCCCN)C(=O)O)[C@@H](C)CC [CATH-3] (H-RVKRFWPLVPVAINTVAAGINLYKAIRRK-OH) | 10 to 20 | 10 to 20 | 20 (≈ 67 µg/mL) | 10 (≈ 33.5 µg/mL) | – | – |
| CC[C@H](C)[C@H](NC(=O)[C@H](CCCCN)NC(=O)[C@H](CCC(=O)O)NC(=O)CNC(=O)CNC(=O)[C@H](CCCCN)NC(=O)[C@H](CCCNC(=N)N)NC(=O)[C@H](CC(C)C)NC(=O)[C@H](CC(C)C)NC(=O)CN)C(=O)NCC(=O)N[C@@H](CCC(=O)O)C(=O)N[C@@H](CCCCN)C(=O)N[C@@H](CC(C)C)C(=O)N[C@@H](CCCCN)C(=O)N[C@@H](CCCCN)C(=O)N[C@H](C(=O)NCC(=O)N[C@@H](CCC(N)=O)C(=O)N[C@@H](CCCCN)C(=O)N[C@H](C(=O)N[C@@H](CCCCN)C(=O)N[C@@H](CC(N)=O)C(=O)N[C@@H](Cc1ccccc1)C(=O)N[C@@H](Cc1ccccc1)C(=O)N[C@@H](CCC(N)=O)C(=O)N[C@@H](CCCCN)C(=O)N[C@@H](CC(C)C)C(=O)N[C@H](C(=O)N1CCC[C@H]1C(=O)N[C@@H](CCC(N)=O)C(=O)N1CCC[C@H]1C(=O)N[C@@H](CCC(=O)O)C(=O)N[C@@H](CCC(N)=O)C(=O)O)C(C)C)[C@@H](C)CC)[C@@H](C)CC [CRAMP] (H-GLLRKGGEKIGEKLKKIGQKIKNFFQKLVPQPEQ-OH) | > 40 | > 40 | > 40 | > 40 | 40 | 40 |
